Consider five molecules from patent US20240246908A1 (ORION CORPORATION, priority 2021, published 2024).

The test concerns YAP-TEAD. Kind of test: TEAD inhibition, Hippo Pathway TEAD Reporter MCF-7 luciferase assay. Particulars: Homo sapiens, MCF7, 24 h, Hippo Pathway TEAD Reporter MCF-7 cells, luciferase activity after 24 h; read-out: IC50 of the test compounds on YAP-TEAD inhibition (Group). The format is cell-based. Summed up: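 IC50 derived from ONE-Glo luciferase luminescence after 24 h compound exposure (11 concentrations in quadruplicate, 0.1% DMSO control). Reporter: MCF-7 line expressing firefly luciferase under TEAD elements, constitutively activated by nuclear YAP1.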

For `O=C(Nc1cc(Oc2ccc(C(F)(F)F)cc2)cc2c1OCC2)C1CCC(=O)N1C1CC1` (centres unmarked) [Compound 109, 1-Cyclopropyl-5-oxo-N-(5-(4-(trifluoromethyl)phenoxy)-2,3-dihydro-benzofuran-7-yl)pyrrolidine-2-carboxamide], the IC50 is under 50 nM.
With `O=C1CCC(C(=O)Nc2cccc(Oc3cccc(C(F)(F)F)c3)c2)N1` (centres unmarked) [Compound 16, 5-Oxo-N-(3-(3-(trifluoromethyl)phenoxy)phenyl) pyrrolidine-2-carboxamide], the half-inhibitory concentration (IC50) fell in the range of 301 to 2000 nM.
As for `CN1C(=O)CCC1C(=O)Nc1cc(OC2CCC(C(F)(F)F)CC2)ccc1F` (centres unmarked) [Compound 270, N-(2-Fluoro-5-((4-(trifluoromethyl)cyclohexyl)oxy)phenyl)-1-methyl-5-oxo-pyrrolidine-2-carboxamide], the IC50 was in the range of 50 to 300 nM.
Take `COc1ccc(OCC2CCC(F)(F)CC2)cc1NC(=O)C1CCC(=O)N1C` (centres unmarked) [Compound 206, N-(5-((4,4-Difluorocyclohexyl)methoxy)-2-methoxyphenyl)-1-methyl-5-oxopyrrolidine-2-carboxamide]: the IC50 is under 50 nM.
Take `COc1ccc(Oc2ccc(Cl)cc2F)cc1NC(=O)C1CCC(=O)N1C` (centres unmarked) [Compound 385, N-(5-(4-Chloro-2-fluorophenoxy)-2-methoxyphenyl)-1-methyl-5-oxopyrrolidine-2-carboxamide]: the concentration for half-maximal inhibition (IC50) was under 50 nM.

The term IC50 denotes the concentration at which inhibition is half-maximal.
